# Experimental data: US11059792B2, “Imidazolyl tricyclic enones as antioxidant inflammation modulators” (REATA PHARMACEUTICALS, INC., priority 2015, dated 2021)
# Tested on: RAW 264.7 cells
# Experiment: Nitric oxide suppression assay (IFNγ-induced NO production, Griess detection)
# Type: cell-based
# Settings: RAW264.7, RAW 264.7 mouse macrophages, 2 h compound pre-treatment, 20 ng/mL interferon gamma, ~18 h
# Experimental: RAW 264.7, a mouse macrophage cell line, was obtained from American Type Culture Collection (Manassas Va.) and maintained in the log phase of growth in Dulbecco's Modified Eagle's Medium (DMEM), 10% heat inactivated fetal calf serum and 100 units/mL antibiotic-antimycotic (AA). Cells were cultured and maintained in a humidified incubator at 37° C. under 5% CO2 and 95% air. Cells were sub-cultured every 3 days by scraping and were not used beyond passage 20. All cell culture supplies were obtained from Life Technologies (Grand Island, N.Y.).
# RAW 264.7 cells were plated 1 day in advance of experiment at a concentration of 80,000 cells/well onto CellBIND® 96 well plates (Corning, N.Y.) in a total volume of 100 μL. The next day, pre-treat cells with compounds (from 3 μM to 0.3 nM serially diluted in a 10 point curve) from a 10× stock by adding 10 μL per well in complete DMEM media containing 10% fetal calf serum. The plates were centrifuged for 3 minutes at 400×g at room temperature followed by 2 hour incubation at 37° C. The cells were then incubated overnight at 37° C. with 10 μL of the insult, interferon gamma (R&D Systems, Minneapolis, Minn.), from a 10× stock for a final concentration of 20 ng/mL. The plates were centrifuged for 3 minutes at 400×g at room temperature followed by ˜18 hour incubation at 37° C. The following day, transfer 50 μL cell culture supernatant from each well into a clear bottom 96 well plate and follow the instructions from Promega's Griess Detection Kit #G2930 (Madison, Wis.) which involves the addition of 50 μL of the provided sulfanilamide solution for a 5-10 minute incubation at room temperature. Next add 50 μL of the provided N-1-napthylethylenediamine dihydrochloride (NED) solution for a 5-10 minute incubation at room temperature and protected from light. If any air bubbles were introduced into the well, the plates need to be centrifuged for 5 minutes at 400×g at room temperature to avoid interference with absorbance readings. The plates were read for absorbance within 30 minutes with a filter between 520 nm and 550 nm.
# For the ability of compounds to suppress the increase in nitric oxide release, the percent maximal intensity of nitric oxide detected in each well was normalized to that induced by the peak value for 20 ng/mL of interferon gamma alone and plotted against the compound concentration to calculate IC50 values and to control for plate-to-plate variability. Concentration-response data were analyzed using GraphPad Prism (San Diego, Calif.); the IC50 values were derived from a single curve fit to the mean data of n=2-3, in duplicates.
# All compounds were dissolved in dimethyl sulfoxide at 10 mM stock solutions and tested at a concentration that the dimethyl sulfoxide levels never exceeded 1%.
row,IC50 [nM],Structure (SMILES)
1,1000,Cc1nc2c(n1-c1cccc(CCC(N)=O)c1)CC[C@H]1[C@H](C)C(=O)C(C#N)=C[C@]21C [Compound T20]
2,407,COCCCn1c(C)nc2c1CC[C@H]1[C@H](C)C(=O)C(C#N)=C[C@]21C [Compound T21]
3,47.8,Cc1nc2c(n1-c1cccc(-c3cncnc3)c1)CC[C@H]1[C@H](C)C(=O)C(C#N)=C[C@]21C [Compound T22]
4,31.1,C[C@@H]1C(=O)C(C#N)=C[C@]2(C)c3nc(Br)n(-c4ccccc4)c3CC[C@@H]12 [Compound T23]
5,48.8,C[C@@H]1C(=O)C(C#N)=C[C@]2(C)c3nc(-c4ccncc4)n(-c4ccccc4)c3CC[C@@H]12 [Compound T24]
6,15.4,Cc1ccccc1-c1nc2c(n1-c1nnn(C)n1)CC[C@H]1[C@H](C)C(=O)C(C#N)=C[C@]21C [Compound T25]
7,27.7,C[C@@H]1C(=O)C(C#N)=C[C@]2(C)c3nc(C#N)n(-c4ccccc4)c3CC[C@@H]12 [Compound T26]
8,53.1,C[C@@H]1C(=O)C(C#N)=C[C@]2(C)c3nc(C(N)=O)n(-c4ccccc4)c3CC[C@@H]12 [Compound T27]
9,138,Cc1nc2c(n1-c1ccccc1)CC[C@H]1[C@H](C)C(=O)C(C(N)=O)=C[C@]21C [Compound T28]
10,136,Cc1nc2c(n1-c1ccc(-c3ccccc3)cc1)CC[C@H]1[C@H](C)C(=O)C(C#N)=C[C@]21C [TS]

# Further lines, the molecule ahead of its results:
row,Structure (SMILES),IC50 [nM]
1,C[C@@H]1C(=O)C(C#N)=C[C@]2(C)c3nc(-c4ccccc4)[nH]c3CC[C@@H]12 [Compound T1],151
2,C[C@@H]1C(=O)C(C#N)=C[C@]2(C)c3nc(-c4ccccc4)n(-c4ccccc4)c3CC[C@@H]12 [Compound T2],471
3,Cc1nc2c(n1-c1ccccc1)CC[C@H]1[C@H](C)C(=O)C(C#N)=C[C@]21C [Compound T3],40.8
4,CC(=O)OCCCc1cccc(-n2c(-c3ccccc3)nc3c2CC[C@H]2[C@H](C)C(=O)C(C#N)=C[C@]32C)c1 [Compound T4],662
5,Cc1nc2c(n1-c1cccc(CCCO)c1)CC[C@H]1[C@H](C)C(=O)C(C#N)=C[C@]21C [Compound T6],19.4
6,Cc1nc2c(n1-c1cccc(-c3ccccc3)c1)CC[C@H]1[C@H](C)C(=O)C(C#N)=C[C@]21C [Compound T7],91.8
7,C[C@@H]1C(=O)C(C#N)=C[C@]2(C)c3nc(-c4ccccc4)n(-c4nnn(C)n4)c3CC[C@@H]12 [Compound T8],28.8
8,C[C@@H]1C(=O)C(C#N)=C[C@]2(C)c3nc(-c4cnn(C)c4)n(-c4ccccc4)c3CC[C@@H]12 [Compound T9],22.7
9,Cc1ccccc1-n1c(C)nc2c1CC[C@H]1[C@H](C)C(=O)C(C#N)=C[C@]21C [Compound T10],62.8
10,C[C@@H]1C(=O)C(C#N)=C[C@]2(C)c3nc(CCOCc4ccccc4)n(-c4ccccc4)c3CC[C@@H]12 [Compound T11],93.2
11,C[C@@H]1C(=O)C(C#N)=C[C@]2(C)c3nc(CCO)n(-c4ccccc4)c3CC[C@@H]12 [Compound T12],11.3
12,Cc1nc2c(n1-c1cnn(C)c1)CC[C@H]1[C@H](C)C(=O)C(C#N)=C[C@]21C [Compound T13],233
13,COC(=O)CCc1cccc(-n2c(C)nc3c2CC[C@H]2[C@H](C)C(=O)C(C#N)=C[C@]32C)c1 [Compound T14],222
14,Cc1nc2c(n1-c1cccc(CCC(=O)O)c1)CC[C@H]1[C@H](C)C(=O)C(C#N)=C[C@]21C [Compound T15],> 3000
15,C[C@@H]1C(=O)C(C#N)=C[C@]2(C)c3nc(-c4cnn(C)c4)n(-c4nnn(C)n4)c3CC[C@@H]12 [Compound T16],132
16,C[C@@H]1C(=O)C(C#N)=C[C@]2(C)c3nc(-c4ccccc4)n(-c4cnn(C)c4)c3CC[C@@H]12 [Compound T17],120
17,CNC(=O)CCc1cccc(-n2c(C)nc3c2CC[C@H]2[C@H](C)C(=O)C(C#N)=C[C@]32C)c1 [Compound T18],693
18,Cc1nc2c(n1-c1cccc(CCC(=O)N(C)C)c1)CC[C@H]1[C@H](C)C(=O)C(C#N)=C[C@]21C [Compound T19],82.7
